Literature values in patent publication US5520931A (Gacell Laboratories AB, priority 1992, dated 1996).

Tested on: cancer pain
Settings: severe pain, WHO programme

## CN1CC[C@]23c4c5ccc(O)c4O[C@H]2[C@@H](O)C=C[C@H]3[C@H]1C5 [morphine]
  efficacy and acceptability in advanced cancer pain: both efficacious and acceptable
